Reference: patent EP3797781A1, “USE OF EC-7072 AND SYNERGIC COMPOSITIONS THEREOF IN TREATMENT OF CHRONIC LYMPHOCYTIC LEUKEMIA” (priority 2019, dated 2021)

How the values were obtained:
MEC-1 cells = assay: Immunoblot of phosphorylated and total STAT3 in MEC-1 cells; format: cell-based; details: 200 nM, 0-, 3-, 8- and 12-hour time points; reduction of p-STAT3
BCL2 = BCL2 levels by intracellular flow cytometry in isolated CLL cells; format: cell-based, human; details: 200 nM, 12 and 18 hours; isolated CLL cells (n = 6)
Method: The dysregulation of BCL2 expression in primary CLL by EC-7072 was evaluated by: • (i) incubating isolated CLL cells (n = 6) from patients with CLL following treatment with EC-7072 (200 nM) for 6 hours and extracting total RNA. Relative expression of BLC2 was determined by qPCR to obtain the mean relative expression to the control (DMSO) condition (Figure 6F); • (ii) incubating isolated CLL cells (n = 6) following treatment with 200 nM EC-7072 for 12 and 18 hours. BCL2 levels were evaluated by intracellular flow cytometry (Figure 6G); • (iii) incubating isolated T cells (n = 3) from patients with CLL following treatment with EC-7072 (200 nM) for 6 hours and extracting total RNA. Relative expression of BLC2 was determined by qPCR to obtain the mean relative expression to the control (DMSO) condition (Figure 6H); • (iv) incubating PBMCs (Figure 6I) and isolated T cells (Figure 6J) from patients with CLL (n = 3) following treatment with 200 nM EC-7072 for 24 hours. T-cell death and apoptosis were assessed by DiOC6(3)/PI staining to obtain percentages of viable [DiOC6(3)^+] cells and the mean percentages of apoptotic [DiOC6(3)^low PI^-] and dead [PI^+] cells.

isolated CLL cells = assay: Western blotting of isolated CLL cells; format: cell-based, human
Method: Isolated CLL cells were treated with 200 nM EC-7072 for 3, 8 and 12 hours and lysed with lysis buffer [50 mM Tris-HCl (pH 8), 150 mM NaCl, 1 mM EDTA, 1% NP-40, 20 mM NaF, EDTA-free protease inhibitor cocktail and phosSTOPTM (Roche)]. After heat denaturation, 25 µg protein were resolved on 10% and 15% SDS-PAGE gels and transferred to PVDF membranes (Sigma-Aldrich). Membranes were blocked with 5% BSA and incubated overnight at 4 °C with the corresponding primary antibodies (p-PLCγ2 (Y759), p-ERK1/2 (T202/Y204), p-STAT3 (Y705), p-LYN (Y507), STAT3 and GAPDH from Cell Signaling, and PLCγ2, ERK1/2, LYN, BCL-xL and Noxa from Santa Cruz Biotechnology). Blots were developed with secondary antibodies conjugated to IRDye680 or IRDye800 (Li-Cor Biosciences) and signal was detected on an Odyssey scanner.
Levels of phosphorylated and total proteins were quantified following Western blotting by densitometric analysis employing ImageJ software (https://imagej.nih.gov/ij/). To determine relative protein amounts, signal intensities were first normalized to GAPDH and the ratio between phosphorylated and total proteins was then calculated.
Western blot analysis of BCL-xL and Noxa in isolated CLL cells (n = 3) treated with 200 nM EC-7072 for the indicated times was performed (Figure 6E).
The inhibition of the tonic BCR pathway by EC-7072 was evaluated by: • (i) incubating PBMCs from patients with CLL, following treatment with 200 nM EC-7072, for 8 hours. Surface expression of CD79A (Figure 7A), CD79B (Figure 7B) and IgM (Figure 7C) in leukemia cells (n = 5 - 6) was assessed by flow cytometry and the MFI was normalized to the control (DMSO) condition; • (ii) incubating isolated leukemia cells from patients with CLL (n = 10), following treatment with EC-7072 (200 nM), for 8 hours. Phosphorylation levels of p-SYK (Figure 7D), p-BTK (Figure 7E) and p-PLCy2 (Figure 7F) proteins and p-ERK1/2 (Figure 7G), p-AKT (Figure 7H), p-p65 NPκB (Figure 7I) and p-STAT3 (Figure 7J) were evaluated by phosphoflow and the MFI was normalized to the control (DMSO) from each individual patient; • (iii) incubating PBMCs from patients with CLL (n = 8), following treatment with EC-7072 (200 nM), for 8 hours. Viability was determined by DiOC6(3)/PI staining and normalized to the control (DMSO) condition for each individual patient to obtain the mean percentage of viable [DiOC6(3)^+] cells (Figure 7K); • (iv) incubating isolated CLL cells (n = 4) stimulated with CD40L (100 ng/mL) or IL-6 (40 ng/mL) for 15 minutes and detecting respective phosphorylation levels of p65 NF-κB (Figure 7L) and STAT3 (Figure 7M) by phosphoflow to obtain the mean MFI normalized to the control (DMSO) condition for each individual patient; • (v) incubating isolated leukemia cells from 3 patients with CLL, following treatment with 200 nM EC-7072, for 3, 8 and 12 hours. Protein lysates were immunoblotted to detect the phosphorylated (p-LYN, p-PLCγ2, p-STAT3 and p-ERK1/2) and total protein (LYN, PLCγ2, STAT3 and ERK1/2) levels (Figure 7N); • (vi) incubating isolated leukemia cells from 3 patients with CLL, following treatment with 200 nM EC-7072, for 3, 8 and 12 hours and immunoblotting of protein lysates to detect p-LYN, LYN, p-PLCγ2, PLCγ2, p-STAT3, STAT3, p-ERK1/2 and ERK1/2. […]

[1] = 200 nM, 3, 8 and 12 hours, 3 patients

CO[C@@H]([C@@H]1Cc2cc3cc(O[C@H]4C[C@@H](O[C@H]5C[C@@H](O)[C@H](O)[C@@H](C)O5)[C@H](O)[C@@H](C)O4)c(C)c(O)c3c(O)c2C(=O)[C@H]1O[C@H]1C[C@@H](O[C@H]2C[C@@H](O[C@H]3C[C@](C)(O)[C@H](O)[C@@H](C)O3)[C@@H](O)[C@@H](C)O2)[C@H](O)[C@@H](C)O1)[C@@H](O)C(C)=O [EC-7072, mithramycin SK]
levels of p-STAT3 in MEC-1 (MEC-1 cells): further confirmed | protein levels of BCL2 (BCL2): mild, but significant, decrease | levels of p-STAT3 (Western blotting) (isolated CLL cells; [1]): diminished | p-LYN, p-PLCγ2 and p-ERK1/2 (Western blotting) (isolated CLL cells; [1]): time-dependent reduction | total amount of LYN, PLCγ2 and STAT3 (isolated CLL cells; [1]): downregulate | levels of the antiapoptotic protein BCL-xL (isolated CLL cells; 200 nM, time-dependent, n = 3): decreased | levels of the proapoptotic protein Noxa (isolated CLL cells; 200 nM, time-dependent, n = 3): increase
